Data taken from ChEMBL document CHEMBL3886169, “Oxazine derivatives and their use in the treatment of disease” (2015).

Columns and labels:
Beta-secretase 2 = molecular target: T1, Beta-secretase 2 (Homo sapiens, UniProt Q9Y5Z0); experiment: Fluorescence increase was followed for 15 min, in 1 minute's intervals. The fluorescence/time slopes were calculated from duplicate wells and from wells without inhibitor and the IC50 values were calculated using a logistic 4-parameter model.
T1 sequence (Q9Y5Z0 whole entry): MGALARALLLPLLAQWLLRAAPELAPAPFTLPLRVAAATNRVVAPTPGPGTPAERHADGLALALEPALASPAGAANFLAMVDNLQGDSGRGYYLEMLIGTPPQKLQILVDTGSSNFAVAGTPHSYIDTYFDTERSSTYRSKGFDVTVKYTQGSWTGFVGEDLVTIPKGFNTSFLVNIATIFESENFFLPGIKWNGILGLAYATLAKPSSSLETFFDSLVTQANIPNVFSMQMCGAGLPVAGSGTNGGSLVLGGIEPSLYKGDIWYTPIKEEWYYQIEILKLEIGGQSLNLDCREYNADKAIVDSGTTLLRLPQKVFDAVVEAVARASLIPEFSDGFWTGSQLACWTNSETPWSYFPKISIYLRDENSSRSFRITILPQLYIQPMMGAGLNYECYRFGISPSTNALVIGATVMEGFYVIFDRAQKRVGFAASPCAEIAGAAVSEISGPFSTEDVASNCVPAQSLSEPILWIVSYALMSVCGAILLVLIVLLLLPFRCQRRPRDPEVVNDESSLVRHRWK

Beta-secretase 1 = Beta-secretase 1 (Homo sapiens, UniProt P56817); experiment: Inhibition Assay: Recombinant BACE-1 (extracellular domain, expressed in baculovirus and purified using standard methods) at 0.1 to 1 nM concentrations is incubated with the test compound at various concentrations for 1 hour at room temperature in 100 mM acetate buffer, pH 4.5, containing 0.1% CHAPS. Activity was measured using a final concentration of 3 μM of the fluorescence-quenched substrate Q-C(HSO3)-Ile-Asp-Leu-Ala-Val-Leu-Asp-HN-CH2-CH2-Mca, where Q=2-nitro-5-amino benzoic acid and Mca=7-methoxy-4-coumarinyl acetic acid. Catalytic turnover was monitored in a Spectramax Gemini fluorescence plate reader (Molecular Devices) in black 96-well microplates using excitation/emission wavelength of 325 nm and 400 nm, respectively. Fluorescence increase was followed for 15 min, in 1 minute's intervals. The fluorescence/time slopes were calculated from duplicate wells and from wells without inhibitor and the IC50 values were calculated using a logistic 4-parameter model.
Chain of Beta-secretase 1 (P56817 whole entry, the tested form may be a part): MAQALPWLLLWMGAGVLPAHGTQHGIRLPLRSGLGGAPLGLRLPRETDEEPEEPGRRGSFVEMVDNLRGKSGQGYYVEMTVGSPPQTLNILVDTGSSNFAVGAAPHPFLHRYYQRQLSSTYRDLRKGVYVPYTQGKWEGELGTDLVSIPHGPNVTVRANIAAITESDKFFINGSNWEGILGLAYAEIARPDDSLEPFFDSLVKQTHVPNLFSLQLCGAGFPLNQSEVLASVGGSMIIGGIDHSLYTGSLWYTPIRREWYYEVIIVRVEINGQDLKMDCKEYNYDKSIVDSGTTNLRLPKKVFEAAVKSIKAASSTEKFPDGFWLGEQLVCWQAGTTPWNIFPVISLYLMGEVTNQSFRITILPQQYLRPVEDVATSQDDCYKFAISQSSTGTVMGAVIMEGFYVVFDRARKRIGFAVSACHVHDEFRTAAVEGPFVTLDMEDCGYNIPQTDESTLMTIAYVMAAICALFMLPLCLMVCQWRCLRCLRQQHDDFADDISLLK

COc1cnc(C(=O)Nc2ccc(F)c([C@@]3(C)N=C(N)OCC3(F)F)n2)c(C)c1
IC50 (Beta-secretase 2): 93 nM
IC50 (Beta-secretase 1): 270 nM
